In PubChem BioAssay AID1222 (Sanford-Burnham Center for Chemical Genomics, 2008):
The source made the active and inactive calls.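 Rule for the calls: active = EC50 below 50 µM in the dose-response confirmation; inactive = the rest.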

tested on: CSM14.1 thapsigargin-induced death rescue, ATP luminescence; test: rescue of cells from ER stress-induced death, primary screen, 384-well, CSM14.1, thapsigargin, ATP luminescence (AID 1222);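 note: death triggered by thapsigargin at about 15 µM added after 2 h compound pretreatment; cell ATP read after overnight thapsigargin exposure of roughly 18 to 22 hours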

Q: Which EC50 does the source give for CCCCC(=O)NC(=S)NNC(=O)c1ccc(Cl)cc1Cl here?
A: The EC50 was > 100 µM (inactive).

Q: For O=C(CSc1nnnn1-c1ccccc1)c1cc2ccccc2oc1=O, which EC50 is on record?
A: The EC50 was > 100 µM (inactive).

Q: Which EC50 does the source give for O=C(c1ccc(N2CCCC2=O)cc1)N1CCCCCC1 here?
A: Its EC50 is > 100 µM (inactive).

Q: Which EC50 does the source give for Cc1c(Cl)c(C(F)F)nn1CC(=O)NC1C(=O)N2C(C(=O)O)=C(CSc3nnnn3C)CSC12 (stereo not given) here?
A: Its EC50 is > 100 µM (inactive).

Q: For CCC(=O)Nc1nc2ccccc2n1Cc1ccc(Cl)cc1, which EC50 is on record?
A: Its EC50 is > 100 µM (inactive).

Q: CNC(=O)c1c(NC(=O)c2nc3ccccc3s2)sc2c1CCC2 was tested. Which EC50 did it give?
A: Its EC50 is > 100 µM (inactive).

Q: Cc1cc(CNC(=O)Cc2ccccc2)c2ccccc2n1 was tested. Which EC50 did it give?
A: The EC50 was > 100 µM (inactive).

Q: For CCC(=O)NC(=S)NNC(=O)c1ccc(OC)cc1, which EC50 is on record?
A: Its EC50 is > 100 µM (inactive).

Q: How did the EC50 turn out when C#CCOCCOCCOCCNc1nc(N2CCN(C(=O)[C@H](C)n3cc(CCCN=C(N)N)nn3)CC2)nc(N2CCN(C(=O)[C@H](C)n3cc(CCCN=C(N)N)nn3)CC2)n1 was run?
A: The EC50 was > 100 µM (inactive).

Q: For O=S(=O)(c1ccc2c(c1)OCCO2)N1CCN(c2nc(-c3cccnc3)nc3ccccc23)CC1, which EC50 is on record?
A: Its EC50 is 76.4 µM (inactive).

Q: How did the EC50 turn out when O=C(NC1CCCCC1)C(c1ccc2ncccc2c1)N(Cc1ccc2c(c1)OCO2)C(=O)c1ccc2c(c1)OCCO2 (stereo not given) was run?
A: Its EC50 is 21.3 µM.

Q: How did the EC50 turn out when COc1ccc(/C=C/C(=O)N2CCCc3ccccc32)cc1 was run?
A: Its EC50 is > 100 µM (inactive).

Q: With COC(=O)c1ccc(NC(=O)C2CC(=O)N(c3ccc(C)cc3)C2)cc1 (stereo not given) as the molecule, how does the EC50 read?
A: Its EC50 is > 100 µM (inactive).

Q: COc1ccc(CN(C(=O)c2ccc3c(c2)OCCO3)C(C(=O)NC2CCCCC2)c2ccc3ncccc3c2)cc1 (stereo not given) was tested. Which EC50 did it give?
A: The EC50 was 31.4 µM.

Q: With COc1ccc(CNC(=O)CCCn2nc(C)c([N+](=O)[O-])c2C)cc1OC as the molecule, how does the EC50 read?
A: The EC50 was > 100 µM (inactive).

Q: Which EC50 does the source give for O=c1[nH]c(-c2ccccn2)nc2sc(-c3ccccc3)cc12 here?
A: The EC50 was > 100 µM (inactive).

Q: COc1ccccc1Cn1c(=S)[nH]c2cc(C(=O)NCC3CCCO3)ccc2c1=O (stereo not given) was tested. Which EC50 did it give?
A: The EC50 was > 100 µM (inactive).

Q: Which EC50 does the source give for Cc1cccc(C(=O)O/N=C(/c2ccccc2)c2ccncc2)c1 here?
A: Its EC50 is > 100 µM (inactive).

Q: How did the EC50 turn out when Cc1ccc(OCC(=O)NCCC2=CCCCC2)cc1 was run?
A: The EC50 was > 100 µM (inactive).

Q: How did the EC50 turn out when O=C(NC1CCCCC1)C(c1ccc2ncccc2c1)N(Cc1ccc(F)cc1)C(=O)c1ccc2c(c1)OCCO2 (stereo not given) was run?
A: The EC50 was 28.8 µM.

Q: For C/C(=N\NC(=S)Nc1cccc(C)c1)c1ccco1, which EC50 is on record?
A: Its EC50 is > 100 µM (inactive).

Q: Cc1nc(N2CCN(C(=O)c3ccco3)CC2)c2c3c(sc2n1)CC(C)CC3 (stereo not given) was tested. Which EC50 did it give?
A: Its EC50 is 58.7 µM (inactive).

Q: For Cc1ccc2cccc(N=Cc3c(C)[nH]n(-c4ccccc4)c3=O)c2n1, which EC50 is on record?
A: Its EC50 is > 100 µM (inactive).

Q: O=C(NC1CCCCC1)C(c1ccncc1)N(Cc1ccccc1)C(=O)c1ccc(-c2ccccc2)[nH]1 (stereo not given) was tested. Which EC50 did it give?
A: The EC50 was 52.5 µM (inactive).

Q: With C=C(C)CNC(=S)N/N=C/c1ccc([N+](=O)[O-])cc1 as the molecule, how does the EC50 read?
A: Its EC50 is > 100 µM (inactive).

Q: With CC12C(=O)N(c3ccc(C(=O)N4CCOCC4)cc3)C(=O)C1C1c3ccccc3C2c2ccccc21 (stereo not given) as the molecule, how does the EC50 read?
A: Its EC50 is > 100 µM (inactive).

Q: With CCN1CCc2c(OCC(=O)N3N=C(c4cccs4)CC3c3ccc(F)cc3)cccc2C1=O (stereo not given) as the molecule, how does the EC50 read?
A: The EC50 was 42 µM.

Q: With CC1=NN(/C(=N\c2nnc(C)s2)Nc2ccccc2)[C@H](c2ccc(C)cc2)S1 as the molecule, how does the EC50 read?
A: The EC50 was > 100 µM (inactive).

Q: How did the EC50 turn out when CCO[C@@H]1OC(C(=O)N2CCN(Cc3ccc4c(c3)OCO4)CC2)=C[C@H](c2csc3ccccc23)[C@H]1CCCO was run?
A: Its EC50 is 86.1 µM (inactive).

Q: For CC12COC3(P(=O)(c4ccccc4)c4ccccc4)CC1CCC23CP(=O)(c1ccccc1)c1ccccc1 (stereo not given), which EC50 is on record?
A: The EC50 was 40.2 µM.

Q: COc1ccc(C(=O)C(OC(=O)c2ccccc2)c2ccccc2)cc1 (stereo not given) was tested. Which EC50 did it give?
A: Its EC50 is 66.5 µM (inactive).

Q: CC(C)CC(NC(=O)OC(C)(C)C)c1cn([C@@H](Cc2cc3ccccc3[nH]2)C(=O)N2CCN(C(=O)OC(C)(C)C)CC2)nn1 (stereo not given in full) was tested. Which EC50 did it give?
A: The EC50 was 62.2 µM (inactive).

Q: How did the EC50 turn out when CCc1ccc(CC2S/C(=C(\C#N)C(C)=O)NC2=O)cc1 (stereo not given) was run?
A: The EC50 was > 100 µM (inactive).

Q: Cc1ccc2c(C(=O)N3CCN(c4ccccc4)CC3)cc(-c3cccnc3)nc2c1C was tested. Which EC50 did it give?
A: The EC50 was 81.3 µM (inactive).

Q: Which EC50 does the source give for O=C(Nc1nonc1-c1ccc(Cl)cc1)c1ccccc1 here?
A: The EC50 was > 100 µM (inactive).

Q: CCCCCCn1c(O)c(/C=C2\C=NN=C2c2ccccc2)sc1=S was tested. Which EC50 did it give?
A: Its EC50 is > 100 µM (inactive).

Q: COc1ccc(NC2=Nc3ccccc3N3C2=Nc2c(c(C)nn2-c2ccc(C)cc2)C3c2cccnc2)cc1 (stereo not given) was tested. Which EC50 did it give?
A: Its EC50 is 92.6 µM (inactive).

Q: With CCN1C(=O)/C(=C/c2ccc3c(c2)CCN3CCCCl)C(=O)NC1=S as the molecule, how does the EC50 read?
A: The EC50 was 44.7 µM.

Q: O=c1c2c(-c3ccccc3)csc2ncn1/N=C/c1cccc([N+](=O)[O-])c1O was tested. Which EC50 did it give?
A: The EC50 was > 100 µM (inactive).

Q: Which EC50 does the source give for COc1ccc(C2=C/C(=C\c3cccc(OC(C)=O)c3)C(=O)O2)cc1 here?
A: Its EC50 is > 100 µM (inactive).

Q: COc1ccc(CN(C(=O)c2cccs2)C(C(=O)NC2CCCCC2)c2ccc3ncccc3c2)cc1 (stereo not given) was tested. Which EC50 did it give?
A: Its EC50 is 68.5 µM (inactive).

Q: Which EC50 does the source give for Cc1ccc(-c2nnn(CC(=O)N(Cc3cccs3)C(C(=O)NC3CCCC3)c3ccncc3)n2)cc1 (stereo not given) here?
A: Its EC50 is > 100 µM (inactive).

Q: CC[C@@H](C)[C@@H](C(=O)N1CCN(C(=O)OC(C)(C)C)CC1)n1cc(CCCN=C(NC(=O)OC(C)(C)C)NC(=O)OC(C)(C)C)nn1 was tested. Which EC50 did it give?
A: Its EC50 is 58.5 µM (inactive).

Q: CN1CCC(O)(c2ccccc2)C(C(=O)c2ccccc2)C1 (stereo not given) was tested. Which EC50 did it give?
A: The EC50 was > 100 µM (inactive).

Q: CCCC1=[N+](CC(C)=O)CCn2c(C)ccc21 was tested. Which EC50 did it give?
A: The EC50 was > 100 µM (inactive).

Q: CCOC(=O)C1=C(NC(=S)NC(=O)c2ccccc2)c2ccccc2CC1(C)C was tested. Which EC50 did it give?
A: Its EC50 is > 100 µM (inactive).

Q: For C#CCOCCOCCOCCNc1nc(N2CCN(C(=O)[C@H](CCCCN)n3cc(CCCC)nn3)CC2)nc(N2CCN(C(=O)[C@H](CCCCN)n3cc(CCCC)nn3)CC2)n1, which EC50 is on record?
A: The EC50 was > 100 µM (inactive).

Q: Which EC50 does the source give for CCOc1cc(/C=N/NC(=O)COc2cccc(C)c2)ccc1OC(=O)c1cccs1 here?
A: The EC50 was > 100 µM (inactive).

Q: How did the EC50 turn out when O=C(Nc1nc(-c2cc(F)ccc2F)cs1)c1ccccn1 was run?
A: The EC50 was > 100 µM (inactive).

Q: COC(=O)[C@@]1(Cc2ccc(F)cc2)[C@H]2c3cc(C(=O)N4CCCC4)n(CCc4c[nH]c5ccc(OC)cc45)c3C[C@H]2CN1C(=O)c1ccccc1 was tested. Which EC50 did it give?
A: Its EC50 is 66.2 µM (inactive).

Q: How did the EC50 turn out when COc1ccc(C(=O)NNC(=S)NC(=O)C(C)(C)C)cc1 was run?
A: The EC50 was > 100 µM (inactive).

Q: COc1ccc(-c2oc3ccccc3c(=O)c2OC(C)=O)cc1 was tested. Which EC50 did it give?
A: Its EC50 is > 100 µM (inactive).

Q: How did the EC50 turn out when CCCCC(=O)NNC(=S)NC(=O)c1ccc(C)cc1 was run?
A: The EC50 was > 100 µM (inactive).

Q: For Clc1ccc(OCCCN2CCCCC2)c(Br)c1, which EC50 is on record?
A: The EC50 was > 100 µM (inactive).

Q: For O=C(NC1CCCCC1)C(c1ccc2ncccc2c1)N(Cc1ccccc1)C(=O)c1ccc2c(c1)OCCO2 (stereo not given), which EC50 is on record?
A: The EC50 was 32.3 µM.

Q: For CCOc1ccccc1NC(=O)C(OC(=O)c1ccccc1NS(=O)(=O)c1cccs1)c1ccccc1 (stereo not given), which EC50 is on record?
A: Its EC50 is > 100 µM (inactive).

Q: COCCn1c(C)cc(C(=O)COC(=O)CCN2C(=O)c3ccccc3C2=O)c1C was tested. Which EC50 did it give?
A: Its EC50 is > 100 µM (inactive).

Q: With CCN(CC)c1ccc(/C=C(/C#N)c2nc3ccc(C)cc3[nH]2)c(OC(C)C)c1 as the molecule, how does the EC50 read?
A: The EC50 was > 100 µM (inactive).

Q: Which EC50 does the source give for C#CCOCCOCCOCCNc1nc(N2CCN(C(=O)[C@H]([C@@H](C)CC)n3cc(CCCN=C(N)N)nn3)CC2)nc(N2CCN(C(=O)[C@H](CCCCN)n3cc(CCCC)nn3)CC2)n1 here?
A: Its EC50 is > 100 µM (inactive).

Q: How did the EC50 turn out when CC(C)C(=O)N1CCC(CN=Cc2c(O)n(C3CCCCC3)c(=O)n(C3CCCCC3)c2=O)CC1 was run?
A: The EC50 was 70.3 µM (inactive).
